Measured values taken from the supplement of paper PMC4932681.

How the values were obtained:
[1] = tested on: BT-474 Tam1; experiment: drug sensitivity score (DSS) (DSS (dimensionless)); higher = more sensitive; extreme values may be limits of the assay; details: 4-OH-tamoxifen in medium 1 µM; 72 h
Method in brief: (§1)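 Breast cancer cell lines and their resistant derivatives were seeded into 384-well plates holding FO2Baq library drugs at five concentrations spanning a 10 000-fold range. Resistant lines were in medium with 1 μM of the selecting drug. Cells were incubated 72 h at 37 °C, and CellTiter-Glo viability was read on a PHERAstar and normalised to vehicle-only and positive controls. Drug sensitivity score, relative IC50 (curve midpoint) and top-dose inhibition came from logistic dose–response fits (Breeze pipeline).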

[2] = tested on: BT-474 Tam2; experiment: as above; details: 4-OH-tamoxifen in medium 1 µM; 72 h
Method in brief: as §1

[3] = tested on: BT-474; experiment: as above; details: 72 h
Method in brief: as §1

[4] = tested on: MCF-7 Tam1; experiment: as above; details: 4-OH-tamoxifen in medium 1 µM; 72 h
Method in brief: as §1

[5] = tested on: MCF-7; experiment: as above; details: 72 h
Method in brief: as §1

[6] = tested on: T-47D Tam1; experiment: as above; details: 4-OH-tamoxifen in medium 1 µM; 72 h
Method in brief: as §1

[7] = tested on: T-47D Tam2; experiment: as above; details: 4-OH-tamoxifen in medium 1 µM; 72 h
Method in brief: as §1

[8] = tested on: T-47D; experiment: as above; details: 72 h
Method in brief: as §1

[9] = tested on: ZR-75-1 Tam1; experiment: as above; details: 4-OH-tamoxifen in medium 1 µM; 72 h
Method in brief: as §1

[10] = tested on: ZR-75-1 Tam2; experiment: as above; details: 4-OH-tamoxifen in medium 1 µM; 72 h
Method in brief: as §1

[11] = tested on: ZR-75-1; experiment: as above; details: 72 h
Method in brief: as §1

[12] = tested on: BT-474 Tam1; experiment: relative IC50 (midpoint of fitted logistic curve, plateau may be below 50% inhibition; CellTiter-Glo viability); higher = less potent; details: 4-OH-tamoxifen in medium 1 µM; 72 h
Method in brief: as §1

[13] = tested on: BT-474 Tam2; experiment: as above; details: 4-OH-tamoxifen in medium 1 µM; 72 h
Method in brief: as §1

[14] = tested on: BT-474; experiment: as above; details: 72 h
Method in brief: as §1

[15] = tested on: MCF-7; experiment: as above; details: 72 h
Method in brief: as §1

[16] = tested on: T-47D Tam1; experiment: as above; details: 4-OH-tamoxifen in medium 1 µM; 72 h
Method in brief: as §1

[17] = tested on: T-47D Tam2; experiment: as above; details: 4-OH-tamoxifen in medium 1 µM; 72 h
Method in brief: as §1

[18] = tested on: T-47D; experiment: as above; details: 72 h
Method in brief: as §1

[19] = tested on: ZR-75-1 Tam1; experiment: as above; details: 4-OH-tamoxifen in medium 1 µM; 72 h
Method in brief: as §1

[20] = tested on: ZR-75-1 Tam2; experiment: as above; details: 4-OH-tamoxifen in medium 1 µM; 72 h
Method in brief: as §1

[21] = tested on: ZR-75-1; experiment: as above; details: 72 h
Method in brief: as §1

SMILES	drug sensitivity score [1]	drug sensitivity score [2]	drug sensitivity score ([3]; 4-OH-tamoxifen in medium 0 µM)	drug sensitivity score ([3]; 4-OH-tamoxifen in medium 1 µM)	drug sensitivity score [4]	drug sensitivity score ([5]; 4-OH-tamoxifen in medium 0 µM)	drug sensitivity score ([5]; 4-OH-tamoxifen in medium 1 µM)	drug sensitivity score [6]	drug sensitivity score [7]	drug sensitivity score ([8]; 4-OH-tamoxifen in medium 0 µM)	drug sensitivity score ([8]; 4-OH-tamoxifen in medium 1 µM)	drug sensitivity score [9]	drug sensitivity score [10]	drug sensitivity score ([11]; 4-OH-tamoxifen in medium 0 µM)	drug sensitivity score ([11]; 4-OH-tamoxifen in medium 1 µM)	relative IC50 [12]	relative IC50 [13]	relative IC50 ([14]; 4-OH-tamoxifen in medium 0 µM)	relative IC50 ([14]; 4-OH-tamoxifen in medium 1 µM)	relative IC50 ([15]; 4-OH-tamoxifen in medium 0 µM)	relative IC50 ([15]; 4-OH-tamoxifen in medium 1 µM)	relative IC50 [16]	relative IC50 [17]	relative IC50 ([18]; 4-OH-tamoxifen in medium 0 µM)	relative IC50 ([18]; 4-OH-tamoxifen in medium 1 µM)	relative IC50 [19]	relative IC50 [20]	relative IC50 ([21]; 4-OH-tamoxifen in medium 0 µM)	relative IC50 ([21]; 4-OH-tamoxifen in medium 1 µM)
CCNC(=O)c1noc(-c2cc(C(C)C)c(O)cc2O)c1-c1ccc(CN2CCOCC2)cc1 [NVP-AUY922]	22.9	16.8	14.7	26.5	3.94	16.7	7.64	8.46	13.5	14.3	14.1	6.14	9.04	6.75	7.06	0.0035 µM	0.0102 µM	0.00412 µM	0.00225 µM	0.00659 µM	0.0412 µM	0.0372 µM	0.0104 µM	0.0199 µM	0.00893 µM	0.0225 µM	0.0211 µM	0.0186 µM	0.0404 µM
CC(C)C[C@@H](C(=O)N[C@H](C(=O)OC1CCCC1)c1ccccc1)[C@H](O)C(=O)NO [Tosedostat (CHR 2797)]	3.46	1.07	4	5.75	0	3.93	3.62	5.48	5.12	1.5	0.354	2.61	5.85	4.86	3.37	1.19 µM	–	–	1.25 µM	0.939 µM	1.35 µM	0.768 µM	0.85 µM	3.24 µM	–	0.829 µM	0.242 µM	–	–
C[C@]12O[C@H](C[C@]1(O)CO)n1c3ccccc3c3c4c(c5c6ccccc6n2c5c31)CNC4=O [Lestaurtinib]	2.16	0.589	0.345	3.7	0.391	0.382	0	0	0	0	0.579	0	0.0147	0	0	0.349 µM	–	–	0.16 µM	–	> 1 µM	> 1 µM	> 1 µM	> 1 µM	–	> 1 µM	–	> 1 µM	–
Nc1ccccc1NC(=O)c1ccc(CNc2nccc(-c3cccnc3)n2)cc1 [Mocetotinostat (MGCD0103)]	7.26	8.98	5.13	9.43	0.799	6.98	4.99	6.2	3.42	4.36	4.03	2.33	2.62	1.76	1.86	2.15 µM	1.21 µM	2.06 µM	1.38 µM	1.76 µM	2 µM	0.688 µM	1.39 µM	3.29 µM	3.22 µM	–	1.48 µM	2.72 µM	–
COc1cc([C@@H]2c3cc4c(cc3[C@@H](O[C@@H]3O[C@@H]5CO[C@@H](c6cccs6)O[C@H]5[C@H](O)[C@H]3O)[C@H]3COC(=O)[C@H]23)OCO4)cc(OC)c1O [Teniposide]	3.14	0.0097	4.07	6.48	0.273	4.14	2.91	8.66	4.73	9.21	4.79	3.15	5.1	4.91	3.3	3.45 µM	–	2.13 µM	2.23 µM	2.13 µM	–	0.995 µM	1.11 µM	0.306 µM	0.697 µM	1.6 µM	0.737 µM	0.703 µM	1.07 µM
O=C(CCCCCCC(=O)Nc1ccc([C@H]2O[C@@H](CSc3nc(-c4ccccc4)c(-c4ccccc4)o3)C[C@@H](c3ccc(CO)cc3)O2)cc1)NO [Tubacin]	0.976	1.25	1.29	4.44	0.69	5.52	5.63	3.65	1.62	2.87	4.31	1.41	0.331	0.333	0.912	–	3.84 µM	–	3.38 µM	1.36 µM	1.86 µM	1.84 µM	3.71 µM	3.43 µM	3.71 µM	3.35 µM	–	–	–
Cc1ccc(NC(=O)c2ccc(CN3CCN(C)CC3)cc2)cc1Nc1nc(-c2cccnc2)cs1 [Masitinib]	4.94	5.8	0.359	3.44	1.1	3.51	1.67	2.68	1.99	1.85	2.81	0.886	1.85	0	0.352	3.35 µM	2.57 µM	–	3.64 µM	1.54 µM	3.77 µM	1.78 µM	3.23 µM	3.57 µM	3.46 µM	–	2.58 µM	> 10 µM	–
O=c1[nH]cc(F)c(=O)[nH]1 [Fluorouracil]	0	0	0	0	0	2.93	0	0	0	0.0675	0	0	3.05	1.39	0.596	> 10 µM	> 10 µM	> 10 µM	> 10 µM	1.43 µM	> 10 µM	> 10 µM	> 10 µM	–	> 10 µM	> 10 µM	–	–	–
